Experimental data published in US9676715B2, “Bis-indolic derivatives, a process for preparing the same and their uses as a drug” (UNIVERSITE JOSEPH FOURIER, priority 2011, dated 2017).
≈ marks a conversion by molar mass, not a printed value.

Tests used:
[1] = tested on: S. aureus ATCC 106414 (VISA); assay: MIC, microdilution method (9.1); format: cell-based, Staphylococcus aureus; settings: Staphylococcus aureus, read after 18 h, read-out: MIC
Description: (§1) The microdilution method recommended by the Clinical and Laboratory Standard Institute [M07-A8, Vol. 29, No. 2] was used. The activity of indolic compounds was tested against 29 bacterial strains belonging to 17 different species and 12 different genera (Staphylococcus, Streptococcus, Enterococcus, Listeria, Bacillus, Haemophilus, Escherichia, Klebsiella, Enterobacter, Serratia, Pseudomonas, and Acinetobacter). Bacterial inocula were prepared in Mueller Hinton broth (MH2, bioMérieux, Marcy L'Etoile, France), supplemented with 10% sheep blood for fastidious species (i.e., Streptococcus pneumoniae and Haemophilus influenzae). They were dispensed in 96 well microtiter plates (5×10^5 CFU/ml of final inoculum). Indolic compounds were added to the wells as to obtain two-fold serial concentrations (0.50-128 mg/L of final concentrations). Plates were incubated at 37° C. in ambient air, or at 37° C. in 5% CO2 enriched atmosphere for fastidious species. […] Drug-free cultures served as growth controls. Cultures receiving gentamicin, ciprofloxacin or cefotaxime served as positive controls.

S. aureus ATCC 25923 = assay: MIC, microdilution method (9.1); format: cell-based, Staphylococcus aureus; settings: Staphylococcus aureus, ATCC25923, read after 18 h, read-out: MIC
Description: as §1

S. aureus ATCC 29213 = assay: MIC, microdilution method (9.1); format: cell-based, Staphylococcus aureus; settings: Staphylococcus aureus, ATCC29213, read after 18 h, read-out: MIC
Description: as §1

[2] = tested on: S. aureus ATCC 33592 (MRSA); assay: MIC, microdilution method (9.1); format: cell-based, Staphylococcus aureus; settings: Staphylococcus aureus, read after 18 h, read-out: MIC
Description: as §1

S. aureus ATCC 6538 = assay: MIC, microdilution method (9.1); format: cell-based, Staphylococcus aureus; settings: Staphylococcus aureus, ATCC6538, read after 18 h, read-out: MIC
Description: as §1

S. aureus ATCC 9144 = assay: MIC, microdilution method (9.1); format: cell-based, Staphylococcus aureus; settings: Staphylococcus aureus, ATCC9144, read after 18 h, read-out: MIC
Description: as §1

S. aureus CIP 103428 = assay: MIC, microdilution method (9.1); format: cell-based, Staphylococcus aureus; settings: Staphylococcus aureus, CIP103428, read after 18 h, read-out: MIC
Description: as §1

[3] = tested on: S. aureus CIP 65.25 (MRSA); assay: MIC, microdilution method (9.1); format: cell-based, Staphylococcus aureus; settings: Staphylococcus aureus, read after 18 h, read-out: MIC
Description: as §1

S. aureus CIP 65.6 = assay: MIC, microdilution method (9.1); format: cell-based, Staphylococcus aureus; settings: Staphylococcus aureus, CIP65, read after 18 h, read-out: MIC
Description: as §1

[4] = tested on: S. epidermidis ATCC 12228; assay: MIC, microdilution method (9.1); format: cell-based, Staphylococcus epidermidis; settings: Staphylococcus epidermidis, ATCC12228, read after 18 h, read-out: MIC
Description: as §1

[5] = tested on: S. epidermidis CIP 103627; assay: MIC, microdilution method (9.1); format: cell-based, Staphylococcus epidermidis; settings: Staphylococcus epidermidis, CIP103627, read after 18 h, read-out: MIC
Description: as §1

S. epidermidis CIP 81.55 = assay: MIC, microdilution method (9.1); format: cell-based, Staphylococcus epidermidis; settings: Staphylococcus epidermidis, CIP81, read after 18 h, read-out: MIC
Description: as §1

S. pneumoniae ATCC 6303 = assay: MIC, microdilution method (9.1); format: cell-based, Streptococcus pneumoniae; settings: Streptococcus pneumoniae, ATCC6303, 10% sheep blood, 5% CO2, 18 h, read-out: MIC
Description: as §1

[6] = tested on: S. agalactiae (group B) ATCC 12400; assay: MIC, microdilution method (9.1); format: cell-based, Streptococcus agalactiae; settings: Streptococcus agalactiae, ATCC12400, 18 h, read-out: MIC
Description: as §1

[7] = tested on: S. pyogenes (group A) CIP 104226; assay: MIC, microdilution method (9.1); format: cell-based, Streptococcus pyogenes; settings: Streptococcus pyogenes, CIP104226, 18 h, read-out: MIC
Description: as §1

S. mitis CIP 103335 = assay: MIC, microdilution method (9.1); format: cell-based, Streptococcus mitis; settings: Streptococcus mitis, CIP103335, 18 h, read-out: MIC
Description: as §1

E. faecium CIP 54.32 = assay: MIC, microdilution method (9.1); format: cell-based, Enterococcus faecium; settings: Enterococcus faecium, CIP54, 18 h, read-out: MIC
Description: as §1

E. faecalis ATCC 29212 = assay: MIC, microdilution method (9.1); format: cell-based, Enterococcus faecalis; settings: Enterococcus faecalis, ATCC29212, 18 h, read-out: MIC
Description: as §1

[8] = tested on: Acinetobacter baumanii ATCC 19606; assay: MIC, microdilution method (9.1); format: cell-based; settings: Acinetobacter baumannii, ATCC19606, 18 h, read-out: MIC
Description: as §1

[9] = tested on: Bacillus subtilis CIP 5262; assay: MIC, microdilution method (9.1); format: cell-based; settings: CIP5262, 18 h, read-out: MIC
Description: as §1

[10] = tested on: Enterobacter cloacae ATCC13047; assay: MIC, microdilution method (9.1); format: cell-based; settings: 18 h
Description: as §1

[11] = tested on: Escherichia coli ATCC 25922; assay: MIC, microdilution method (9.1); format: cell-based; settings: ATCC25922, 18 h
Description: as §1

[12] = tested on: Haemophilus influenzae ATCC 49766; assay: MIC, microdilution method (9.1); format: cell-based; settings: ATCC49766; Haemophilus influenzae ATCC 49766; 10% sheep blood, 5% CO2; 18 h; read-out: MIC
Description: as §1

[13] = tested on: Klebsiella pneumoniae API ATCC 35657; assay: MIC, microdilution method (9.1); format: cell-based; settings: ATCC35657, 18 h, read-out: MIC
Description: as §1

[14] = tested on: Listeria innocua CIP 80.11; assay: MIC, microdilution method (9.1); format: cell-based; settings: CIP80, 18 h, read-out: MIC
Description: as §1

[15] = tested on: Pseudomonas aeruginosa CIP 5933; assay: MIC, microdilution method (9.1); format: cell-based; settings: CIP5933, 18 h, read-out: MIC
Description: as §1

S. pneumoniae ATCC 49619 = assay: MIC, microdilution method (9.1); format: cell-based; settings: Streptococcus pneumoniae, ATCC49619, 10% sheep blood, 5% CO2, 18 h
Description: as §1

[16] = tested on: Serratia marcescens CIP 103551; assay: MIC, microdilution method (9.1); format: cell-based; settings: CIP103551, 18 h
Description: as §1

S. aureus SA-1199B = assay: MIC, microdilution method (9.1); format: cell-based, Staphylococcus aureus; settings: Staphylococcus aureus, SA1199B, 18 h
Description: as §1

[17] = tested on: HCT116 (human colon tumor); assay: In vitro cytotoxicity; format: cell-based; settings: read-out: % of cellular growth inhibition
Description: (§2) In vitro cytotoxicity was assayed on three cell lines—KB (human mouth carcinoma), MCR5 (human lung fibroblast) and HCT116 (human colon tumor). Results are presented in table IV as % of cellular growth inhibition in presence of 10^−5 M and 10^−6 M of the tested bis-indolic derivatives.

[18] = tested on: KB (human mouth carcinoma); assay: In vitro cytotoxicity; format: cell-based; settings: read-out: % of cellular growth inhibition
Description: as §2

[19] = tested on: MRC5 (human lung fibroblast); assay: In vitro cytotoxicity; format: cell-based; settings: read-out: % of cellular growth inhibition
Description: as §2

Row | MIC [1] [µg/mL] | MIC (S. aureus ATCC 25923) [µg/mL] | MIC (S. aureus ATCC 29213) [µg/mL] | MIC [2] [µg/mL] | MIC (S. aureus ATCC 6538) [µg/mL] | MIC (S. aureus ATCC 9144) [µg/mL] | MIC (S. aureus CIP 103428) [µg/mL] | MIC [3] [µg/mL] | MIC (S. aureus CIP 65.6) [µg/mL] | MIC [4] [µg/mL] | MIC [5] [µg/mL] | MIC (S. epidermidis CIP 81.55) [µg/mL] | MIC (S. pneumoniae ATCC 6303) [µg/mL] | MIC [6] [µg/mL] | MIC [7] [µg/mL] | MIC (S. mitis CIP 103335) [µg/mL] | MIC (E. faecium CIP 54.32) [µg/mL] | MIC (E. faecalis ATCC 29212) [µg/mL] | MIC [8] [µg/mL] | MIC [9] [µg/mL] | Compound | other results
1 | 32 (≈ 56.9 µM) | 32 (≈ 56.9 µM) | 16 (≈ 28.5 µM) | 32 (≈ 56.9 µM) | 16 (≈ 28.5 µM) | 32 (≈ 56.9 µM) | 16 (≈ 28.5 µM) | 32 (≈ 56.9 µM) | 32 (≈ 56.9 µM) | 32 (≈ 56.9 µM) | 32 (≈ 56.9 µM) | > 32 | 128 (≈ 228 µM) | 64 (≈ 114 µM) | 128 (≈ 228 µM) | > 128 | > 128 | > 128 | > 32 | > 128 | O=C(NC(C(=O)NCCCCO)c1c[nH]c2ccc(Br)cc12)c1c[nH]c2ccc(Br)cc12 (stereo not drawn) [Compound 15, 5-Bromo-N-(1-(5-bromo-1H-indol-3-yl)-2-((4-hydroxybutyl)amino)-2-oxoethyl)-1H-indole-3-carboxamide] | MIC [10]: > 32 µg/mL; MIC [11]: > 32 µg/mL; MIC [12]: > 128 µg/mL; MIC [13]: > 32 µg/mL; MIC [14]: > 128 µg/mL; MIC [15]: > 32 µg/mL; MIC (S. pneumoniae ATCC 49619): 128 µg/mL (≈ 228 µM); MIC [16]: > 32 µg/mL
2 | 32 (≈ 59.9 µM) | 32 (≈ 59.9 µM) | 32 (≈ 59.9 µM) | 32 (≈ 59.9 µM) | 32 (≈ 59.9 µM) | 32 (≈ 59.9 µM) | 32 (≈ 59.9 µM) | 32 (≈ 59.9 µM) | > 32 | 32 (≈ 59.9 µM) | 32 (≈ 59.9 µM) | 32 (≈ 59.9 µM) | 128 (≈ 240 µM) | 64 (≈ 120 µM) | 64 (≈ 120 µM) | > 128 | > 128 | > 128 | > 32 | > 128 | O=C(NC(C(=O)NCCO)c1c[nH]c2ccc(Br)cc12)c1c[nH]c2ccc(Br)cc12 (stereo not drawn) [Compound 14, 5-Bromo-N-(1-(5-bromo-1H-indol-3-yl)-2-((2-hydroxyethyl)amino)-2-oxoethyl)-1H-indole-3-carboxamide] | MIC [10]: > 32 µg/mL; MIC [11]: > 32 µg/mL; MIC [12]: > 128 µg/mL; MIC [13]: > 32 µg/mL; MIC [14]: > 128 µg/mL; MIC [15]: > 32 µg/mL; MIC (S. pneumoniae ATCC 49619): 64 µg/mL (≈ 120 µM); MIC [16]: > 32 µg/mL

Row | Compound | MIC [1] [µg/mL] | MIC (S. aureus ATCC 25923) [µg/mL] | MIC (S. aureus ATCC 29213) [µg/mL] | MIC [2] [µg/mL] | MIC (S. aureus ATCC 6538) [µg/mL] | MIC (S. aureus ATCC 9144) [µg/mL] | MIC (S. aureus CIP 103428) [µg/mL] | MIC [3] [µg/mL] | MIC (S. aureus CIP 65.6) [µg/mL] | MIC [4] [µg/mL] | MIC [5] [µg/mL] | MIC (S. epidermidis CIP 81.55) [µg/mL] | MIC (S. pneumoniae ATCC 6303) [µg/mL] | MIC [6] [µg/mL] | MIC [7] [µg/mL] | MIC (S. mitis CIP 103335) [µg/mL] | MIC (E. faecium CIP 54.32) [µg/mL] | MIC (E. faecalis ATCC 29212) [µg/mL] | MIC [8] [µg/mL] | MIC [9] [µg/mL] | other results
3 | CC(C)(C)OC(=O)NCC(NC(=O)c1c[nH]c2cc(Br)ccc12)c1c[nH]c2ccccc12 (stereo not drawn) [Compound 3e, tert-Butyl (2-(1H-indol-3-yl)-2-(6-bromo-1H-indolyl-3-carboxamido)ethyl)carbamate] | 8 (≈ 16.1 µM) | 16 (≈ 32.2 µM) | 8 (≈ 16.1 µM) | 32 (≈ 64.3 µM) | 8 (≈ 16.1 µM) | 8 (≈ 16.1 µM) | 8 (≈ 16.1 µM) | 8 (≈ 16.1 µM) | 16 (≈ 32.2 µM) | 8 (≈ 16.1 µM) | 128 (≈ 257 µM) | 8 (≈ 16.1 µM) | – | – | – | – | – | – | – | – | MIC (S. aureus SA-1199B): 8 µg/mL (≈ 16.1 µM); inhibition at 10 µM ([17]; HCT-116, 10^−5 M): 92 ± 1%; inhibition at 1 µM ([17]; HCT-116, 10^−6 M): 2%; inhibition at 10 µM ([18]; 10^−5 M): 99 ± 1%; inhibition at 1 µM ([18]; 10^−6 M): 0%; inhibition at 10 µM ([19]; 10^−5 M): 92 ± 6%; inhibition at 1 µM ([19]; 10^−6 M): 0%
